Converted amounts (≈) assume the structure as drawn.

The record followed here is US20260103479A1, “PRODRUGS OF OPICAPONE” (BIAL- PORTELA & CA, S.A., priority 2022, published 2026).

The nature of data set [1]: In vitro stability in potassium phosphate buffer pH 7.4. The data set is classed as physicochemical. The conditions noted are these: 1 μM, after 0.75 h. The method, then: (§1) The stability of 1 μM of compound 1 was assessed in the following fractions: phosphate buffer, human plasma, rat plasma, human liver S9 fraction, rat liver S9 fraction and rat liver homogenates.
(§2) Reaction was initiated by adding of 1 μM of test compound to the desired matrix (plasma, liver homogenate at 0.4 g/mL or S9 fraction at 1 mg/mL, respectively), with a final volume of 350 μL. At the following time points 0, 5, 15, 30, 45, 60 min, 50 μL of sample is taken and precipitated with 200 μL of acetonitrile 1% formic acid containing the internal standard (opicapone ^13C6) at 1 μM. Samples were centrifuged at 20,000 g at 4° C. for 10 min, and then analysed by LC-MS/MS using a bioanalytical method previously developed in-house.
Solutions of the test compounds were prepared at 10 μM using 50 mM potassium phosphate buffer (KPB) at pH 7.4, by adding 1 μL of compound stock at 10 mM to 999 μL KPB 50 mM. […]
(§3) The stability of 1 μM of compound 4 was assessed in the following fractions: phosphate buffer, human plasma, rat plasma, human liver S9 fraction, rat liver S9 fraction and rat liver homogenates.
(§4) Reaction was initiated by adding 1 μM of test compound to the desired matrix (plasma or S9 fraction at 1 mg/mL), with a final volume of 250 μL. […] Samples were centrifuged at 20,000 g at 4° C. for 10 min, and then analysed by LC-MS/MS using bioanalytical methods previously developed in-house. […]

Data set [2] can be described thus: In vitro stability in human plasma. The data set is classed as in vitro ADME. As to conditions: 1 μM; after 0.75 h. The procedure:
as §1, §2, §3, §4

Data set [3] can be described thus: Oral pharmacokinetics in rats. The data set is classed as in vivo, male Wistar rats. As to conditions: p.o. 3 mg/kg; for Cmax / Tmax / AUC(0-t): male, Wistar, po, rat plasma, analyte prodrug; for AUC(0-t): read-out: AUClast of prodrug; for opicapone pharmacokinetic profile after oral prodrug (comparison): FIG. 3b. The method, then:
The pharmacokinetic properties of compounds 1 and 4 compared to micronized crystalline opicapone were assessed by oral administrations to 4 male Wistar rats (3 mg/kg; 0.2% HPMC).
(§5) During the studies, blood was collected at different time points, from tail vein, spun at 1500×g in a refrigerated centrifuge (4° C.) for 15 min, and the plasma obtained was stored at −80° C. until further analysis. The plasma samples collected were analysed for compound 1, compound 4 and opicapone exposure. The bioanalysis involved the use of LC-MS/MS after plasma precipitation.

A short description of data set [4]: Intravenous pharmacokinetics in rats. The data set is classed as in vivo, male Wistar rats. As to conditions: i.v. 1 mg/kg; for opicapone pharmacokinetic profile after intravenous prodrug (comparison): FIG. 4b; for AUC(0-t): read-out: AUClast of prodrug; for half-life: read-out: t1/2 of prodrug (converted); for Vd / clearance: plasma; for clearance: read-out: CL of prodrug (converted). The procedure: The pharmacokinetic properties of compounds 1 and 4 compared to micronized crystalline opicapone were assessed by intravenous injection to 3 male Wistar rats (1 mg/kg; DMSO:20% HPBCD (1:9).
During the studies, blood was collected at different time points, from jugular vein, spun at 1500×g in a refrigerated centrifuge (4° C.) for 15 min, and the plasma obtained was stored at −80° C. until further analysis. The plasma samples collected were analysed for compound 1, compound 4 and opicapone exposure. The bioanalysis involved the use of LC-MS/MS after plasma precipitation.

Data set [5] can be described thus: Subcutaneous pharmacokinetics in rats. The conditions noted are these: s.c. 3 mg/kg; for Cmax / Tmax / AUC(0-t): male, Wistar, sc, rat plasma, analyte prodrug; for AUC(0-t): read-out: AUClast of prodrug; for irritation at the injection site: DMSO:20% HPBCD (1:9), rat. The class given is in vivo, male Wistar rats. The procedure: The pharmacokinetic properties of compounds 1 and 4 were assessed by subcutaneous injection to 4 male Wistar rats (3 mg/kg; DMSO:20% HPBCD (1:9)).
as §5

The nature of the next data set: physchem. The conditions noted are these: water, thermodynamic from solid.
Data set [6] can be described thus: Long-term stability studies in the solid state. The data set is classed as physicochemical.
The test system of a further data set is L-DOPA metabolism. The data set is described as follows: Subcutaneous pharmacodynamics: impact on L-DOPA and 3-OMD plasma levels. The class given is in vivo, male Wistar rats. The conditions noted are these: s.c. 3 mg/kg with 12 mg/kg L-DOPA plus 3 mg/kg benserazide vs without compound; rat. The procedure:
As proof-of-concept, the effects of compound 4 on L-DOPA metabolism was evaluated in 4 male Wistar rats. Animals were subcutaneously injected with a single formulation (in DMSO:PEG 400:30% SBEBCD (1:2:2)) containing 12 mg/kg of L-DOPA plus 3 mg/kg of benserazide with or without 3 mg/kg of compound 4. Plasma samples were collected as described above and analyzed for levels of L-DOPA and its metabolite 3-O-methyldopa (3-OMD).

Data set [7] in a line: Aqueous solubility in distilled (pure) water at room temperature. As to conditions: thermodynamic from solid.
Protocol: (§6) The solubility studies were completed at room temperature. For the determination of the solubility increasing amounts of distilled water was added to 5 mg of the test sample until its complete dissolution of the product observed by naked eye.
Where [8] appears, read: male, Wistar, iv, rat plasma, analyte prodrug.
[9] abbreviates: male, Wistar, iv, rat, analyte prodrug.

Protocol for physchem: as §6

In the case of `Cc1c(Cl)c(C)[n+]([O-])c(Cl)c1-c1noc(-c2cc(OP(=O)(O)O)c(O)c([N+](=O)[O-])c2)n1` [Compound 1, 2,5-dichloro-3-(5-(4-hydroxy-3-nitro-5-(phosphonooxy)phenyl)-1,2,4-oxadiazol-3-yl)-4,6-dimethylpyridine 1-oxide], the stability in buffer entry in [1] is given as “stable”. In [2], the “stability in human plasma” value is given as “stable”. In data set [3], the Cmax is 146 ng/mL, the Tmax came out at 30 min and the AUC(0-t) is 417 ng·h/mL. Besides, the “oral pharmacokinetic properties of the prodrug (comparison)” value in data set [3] (rat, FIG. 3a) is “improved pharmacokinetic properties compared to compound 4”. Also, in data set [3] (rat), the “opicapone pharmacokinetic profile after oral prodrug (comparison)” value was “comparable to opicapone itself”. For the same compound, the “intravenous pharmacokinetic properties of the prodrug (comparison)” value in data set [4] (rat, FIG. 4a) is “improved pharmacokinetic properties compared to compound 4”. For the same compound, in data set [4] (rat), the “opicapone pharmacokinetic profile after intravenous prodrug (comparison)” value is recorded as “comparable to opicapone itself”. For the same compound, in data set [4] (setting [8]), the C0 is 29400 ng/mL, the AUC(0-t) worked out at 30700 ng·h/mL and the half-life is 156 min. For the same compound, in [4] (setting [9]), the volume of distribution (Vd) stood at 0.123 L/kg and the clearance was 0.643 mL/min/kg. In addition, in [5], the Cmax is 7770 ng/mL, the Tmax came out at 60 min, the AUC(0-t) came out at 15500 ng·h/mL and the “irritation at the injection site” value is given as “low levels of irritation”. This compound returned a solubility in “physchem” of 6000 µg/mL (≈ 12.2 mM).

Regarding `Cc1c(Cl)c(C)[n+]([O-])c(Cl)c1-c1noc(-c2cc(OCOP(=O)(O)O)c(O)c([N+](=O)[O-])c2)n1` [Compound 4, 2,5-dichloro-3-(5-(4-hydroxy-3-nitro-5-((phosphonooxy)methoxy)phenyl)-1,2,4-oxadiazol-3-yl)-4,6-dimethylpyridine 1-oxide], the stability in buffer entry in data set [1] is “stable”. The “stability in human plasma” value in data set [2] is “stable”. For the same compound, the “long-term stability in the solid state” value in data set [6] was “particularly stable”. In data set [3], the highest concentration (Cmax) worked out at 32.5 ng/mL, the time of peak concentration (Tmax) amounted to 30 min and the AUC(0-t) was found to be 26.5 ng·h/mL. The “opicapone pharmacokinetic profile after oral prodrug (comparison)” value in [3] (rat) is “worse oral pharmacokinetic parameters”. Moreover, in [4] (rat), the “opicapone pharmacokinetic profile after intravenous prodrug (comparison)” value is “worse intravenous pharmacokinetic parameters”. Moreover, in data set [4] (setting [8]), the C0 was 21900 ng/mL, the time to peak (Tmax) amounted to 4.8 min, the AUC(0-t) was found to be 4990 ng·h/mL and the half-life is 174 min. In addition, in data set [4] (setting [9]), the Vd was 1.99 L/kg and the clearance was 3.58 mL/min/kg. Besides, in data set [5], the Cmax amounted to 3140 ng/mL, the time to peak (Tmax) amounted to 30 min, the AUC(0-t) came to 9660 ng·h/mL and the “irritation at the injection site” value is listed as “low levels of irritation”. Moreover, in the data set with L-DOPA metabolism, the “increase in the AUClast of circulating L-DOPA” value is listed as 1.7 fold and the “levels of L-DOPA metabolite 3-OMD” value was “decrease”. In addition, the solubility in data set [7] is greater than 500 µg/mL.
